Assay results: US20060167106A1, “Compounds acting at the centrosome” (priority 2004, published 2006)
“Also recorded” adds a separate entry of the source.

Experiments:
[1] = test system: CHO-α-tubulin-YFP cells; test: α-tubulin-YFP localization in CHO-α-tubulin-YFP cells (fluorescence imaging); format: cell-based, Chinese hamster; settings: for accumulation of tubulin in the centrosomes (overall statement): CHO-tubulin-YFP cells, concentration and time not given; for accumulation of tubulin at the centrosomes versus in the nucleus (overall statement): cells treated, concentration not given
Description: Wild-type Chinese Hamster Ovary cells (WT CHO) cells were maintained in Ham's F-12 medium supplemented with 10% fetal bovine serum (FBS; HyClone, Logan, Utah). Cells of low density (˜20%) growing on 2-well chambered cover-slips (Labtek (Campbell, Calif.) or Fisher Scientific) were transfected with a mammalian expression vector encoding α-tubulin-YFP (Clontech, Palo Alto, Calif.) with the use of FuGENE 6 (Roche Molecular Biochemicals, Indianapolis, Ind.), according to the manufacturer's instructions. Twenty-four hours after transfection, the cells were cultured in 400 μg/ml G418 (Invitrogen, Carlsbad, Calif.)-containing selection medium for 2 weeks. Living cells were examined using a fluorescent microscope for α-tubulin-YFP expression. Cells in single colonies containing microtubules labeled with α-tubulin-YFP were lifted and expanded in G418-containing medium. Expression of α-tubulin-YFP was confirmed by the presence of the tubulin-YFP labeled microtubule pattern identical to immunostained microtubule pattern of non-transfected cells, as well as by subjecting the cells to Western blot analysis using an anti-GFP antibody (Roche Molecular Biochemicals, Basel, Switzerland) and confirming the correct mass of the α-tubulin-YFP chimera protein. Expressed tubulin-YFP was detected as a single band in Western blots. The tubulin-YFP expressing cell lines (referred as CHO-α-tubulin-YFP cells) were used in the studies.
CHO-α-tubulin-YFP cells were cultured in 2-well chambered cover-slips (Labtek (Campbell, Calif.) or Fisher Scientific) 24 hours before treatment. For comparison of the centrosomal effects of treatment with Compound 1, Compound 1+Taxol, and Taxol, CHO-α-tubulin-YFP cells were treated with Compound 1, Compound 1+Taxol, Taxol, or equivalent concentrations of DMSO-containing media for various time periods before imaging. For comparison of the effects of Compound 1 and known proteasome inhibitors on centrosomes, the nucleus, and perinuclear regions, CHO-α-tubulin-YFP cells were treated with Compound 1, ALLN (Calbiochem, San Diego, Calif.), lactacystin (Calbiochem, San Diego, Calif.) or MG132 (Calbiochem, San Diego, Calif.), and imaged at various time points from 3 hours to 24 hours after treatment.
Tubulin-YFP fluorescence in living cells or fixed cells was captured using a standard filter for FITC and objectives of 20× or 60× magnification on a Nikon TE300 microscope with a Leica DC50 color digital camera (Leica, Bannockburn, Ill.) or a CoolSnap HQ Monochrome CCD camera (Photonetrics, Tucson, Ariz.). The Leica DC50 and CoolSnapHQ cameras were controlled with Leica DC50 software and MetaVue/MetaMorph software, respectively (Universal Imaging Corp, Downingtown, Pa.).
CHO-α-tubulin-YFP cells were cultured in 2-well chambered cover-slips (Labtek (Campbell, Calif.) or Fisher Scientific) 24 hours before treatment. For comparison of effects on the centrosome, nucleus, and perinuclear regions, cells were treated with Compound 1 and known proteasome inhibitors including ALLN, MG132, Lactacystin, MG115, clasto-Lactacystin β-Lactone (cLβL), and Epoxomicin (10 μM final concentration for all except ALLN, which was used at 100 μM final concentration) (proteasome inhibitors were from Calbiochem, San Diego, Calif.) and imaged at various time points up to 24 hours during treatment.
Tubulin-YFP fluorescence in living cells or fixed cells was captured using a standard filter for FITC and objectives of 20× or 60× magnification on the Nikon TE300 microscope/digital imaging system.

[2] = test system: 26S proteasome; test: Proteasome-sensor cells, flow cytometry; format: cell-based
Method: The first measurement was determined by the increase of proteasome-sensor positive cells treated with Compound 1 or Velcade, as compared to DMSO, by using a cell line expressing the proteasome-sensor protein and flow cytometry analysis.
To measure the proteasome-inhibition effect of Compound 1, GFP fluorescence in the proteasome-sensor cells treated with Compound 1 and Velcade was measured using flow cytometry. […] Cells were harvested by treating the cells with 1×PBS for 5 minutes and pipetting the cells up and done 10 times. The cells were passed through a 100 μm-diameter filter before analyzing by FACS. A standard FITC filter was used for the FACS analysis. Quantitation of the proteasome-inhibitory effect of Compound 1 was determined by an increase in the percentage of GFP-positive cells, as compared to treatment with DMSO alone.
To further characterize the proteasome-inhibitory effect of Compound 1 in live cells, proteasome-sensor cells were treated with Compound 1 and the accumulation of the GFP-based proteasome substrate was measured by flow cytometry.

[3] = test system: CV-1 cells; test: Cell morphology, time-lapse imaging of CV-1 cells; format: cell-based, monkey; settings: 500 nM
Method: CV-1 cells and CHO cells were previously cultured in 2-well chambered cover-slips for 48 hours and incubated in 15 mM HEPES buffer-containing Ham's F-12/DMEM medium with different compounds. The cells were imaged using phase contrast settings with the Nikon TE300 microscope/digital imaging system. The cells were imaged ‘simultaneously’ under control of MetaVue software by capturing frames for cells from different conditions at the same time period using a motorized automated XYZ stage.
[…] […] A very low concentration of Taxol (10 nM) was used.

[4] = test system: bovine microtubule-associated protein (MAP)-free tubulin; test: Tubulin Polymerization Assay (MAP-free tubulin); format: biochemical
Method: For in vitro tubulin polymerization assays, lyophilized bovine microtubule-associated protein (MAP)-free tubulin and PEM buffer (80 mM Na-PIPES (pH 6.9), 1 mM MgCl2, 1 mM EGTA) were purchased from Cytoskeleton (Denver, Colo.). MAP-free tubulin (1.5 mg/ml) was incubated with the test compounds, 0.5 μM Compound 1, 3 μM Taxol, 0.5 μM Compound 1+3 μM Taxol or 0.5 μM Compound 1+30 nM Taxol in PEM-0.3% DMSO. Absorbance at 340 nm was measured every minute for 60 min at 37° C. using a Perkin Elmer HTS 7000 spectrophotometer.

[5] = test system: HeLa cells; test: Oregon Green 488-Taxol localization in HeLa cells; format: cell-based; settings: 0.5 μM Compound 1
Method: A fluorescent compound, Oregon Green 488-Taxol (Molecular Probes/Invitrogen), was utilized to determine the distribution of Taxol in CHO cells (FIG. 33). In addition, the targeting of fluorescent Taxol to centrosomes was examined in Compound 1-treated cells (FIG. 34). Non-transfected wild-type CHO cells and HeLa cells were cultured in 2-well chambered cover-slips for 24-48 hours before treatment. Oregon Green 488-Taxol stock solution was made with DMSO. […] Oregon Green 488-Taxol fluorescence in living cells or fixed cells was imaged using a standard filter for FITC with the Nikon TE300 microscope/digital imaging system.

Which results are given for CC(C)C[C@H](NC(=O)[C@H](Cc1ccccc1)NC(=O)c1cnccn1)B(O)O [Velcade]?
accumulation of α-tubulin-YFP at centrosomes ([1]; CHO cells, 50 nM, 20 hours): accumulation of α-tubulin-YFP at centrosomes; accumulation of α-tubulin-YFP in the nucleus ([1]; CHO cells, 50 nM, 20 hours): accumulation of α-tubulin-YFP in the nucleus; accumulation of α-tubulin-YFP at centrosomes ([1]; CHO cells, 500 nM, 4 hours): lack of accumulation of tubulin-YFP at the centrosomes; accumulation of α-tubulin-YFP at centrosomes ([1]; CHO cells, 500 nM, 8 hours): accumulation of α-tubulin-YFP at centrosomes; accumulation of α-tubulin-YFP in the nucleus ([1]; CHO cells, 500 nM, 8 hours): accumulation α-tubulin-YFP in the nucleus; accumulation of α-tubulin-YFP at centrosomes ([1]; CHO cells, 500 nM, 20 hours): accumulation of α-tubulin-YFP at centrosomes; accumulation of α-tubulin-YFP in the nucleus ([1]; CHO cells, 500 nM, 20 hours): accumulation of α-tubulin-YFP in the nucleus; accumulation of tubulin in the centrosomes (overall statement) [1]: required a higher concentration (500 nM; FIG. 25D) and/or a longer time period; accumulation of tubulin at the centrosomes versus in the nucleus (overall statement) [1]: both accumulation of tubulin at the centrosomes and in the nucleus; also recorded: induced accumulation of tubulin in the nucleus; increase of the fluorescent positive cells (proteasome-sensor positive) compared to DMSO ([2]; 100 nM): 58.26%; increase of fluorescence (non-gated flow cytometry) ([2]; 100 nM, 20 hours): significant increase of fluorescence

Which “accumulation of α-tubulin-YFP at centrosomes” value ([1]; CHO cells, 50 nM, 8 hours) does the source give for CN(NC(=O)CC(=O)NN(C)C(=S)c1ccccc1)C(=S)c1ccccc1 [Compound 1] here?
The value was “accumulation of α-tubulin-YFP at centrosomes; also recorded: induced accumulation of tubulin at centrosomes within 8 hours”.

And the “accumulation of α-tubulin-YFP at centrosomes” value ([1]; CHO cells, 50 nM, 20 hours)?
The value was “accumulation of α-tubulin-YFP at centrosomes”.

And the “accumulation of α-tubulin-YFP at centrosomes” value ([1]; CHO cells, 100 nM, 4 hours)?
The value was “accumulation of tubulin at centrosomes could be observed; also recorded: accumulation of α-tubulin-YFP at centrosomes”.

And the “accumulation of α-tubulin-YFP at the centrosomes” value ([1]; CHO cells, 0.5 μM, 5 hours)?
Its value is “accumulation of α-tubulin-YFP at the centrosomes and perinuclear regions”.

And the “accumulation of α-tubulin-YFP at the centrosomes” value ([1]; CHO cells, 0.5 μM, 11 hours)?
Its value is “accumulation of α-tubulin-YFP at the centrosomes; also recorded: more frequent and greater accumulation of tubulin at the centrosome”.

And the “accumulation of tubulin-YFP at the centrosomes” value ([1]; CHO cells, 0.5 μM, 24 hours)?
Its value is “accumulation of tubulin-YFP at the centrosomes”.

What about the “accumulation of α-tubulin-YFP at centrosomes” value ([1]; CHO cells, 500 nM, 4 hours) of the same compound?
The value was “accumulation of α-tubulin-YFP at centrosomes”.

And the “accumulation of α-tubulin-YFP at centrosomes” value ([1]; CHO cells, 500 nM, 20 hours)?
Its value is “accumulation of α-tubulin-YFP at centrosomes”.

And the “first sign of tubulin accumulation at the centrosomes, time after treatment” value ([1]; CHO cells, Compound 1 alone (0.5 μM))?
Its value is 5 h.

And the “accumulation of tubulin in the centrosomes (overall statement)” value [1]?
Its value is “time-dependent accumulation of α-tubulin-YFP at the centrosomes; also recorded: caused an accumulation of tubulin in the centrosomes”.

And the “accumulation of tubulin at the centrosomes versus in the nucleus (overall statement)” value [1]?
The value was “induced accumulation of tubulin only at the centrosomes; also recorded: not observed”.

And the “increase of the fluorescent positive cells (proteasome-sensor positive) compared to DMSO” value ([2]; 500 nM)?
The value was 14.53%.

And the “increase of fluorescence (non-gated flow cytometry)” value ([2]; 500 nM, 20 hours)?
Its value is “significant increase of fluorescence”.

And the “increase in fluorescent cell population, lower than that of cells treated with Velcade” value ([2]; Compound 1 500 nM versus Velcade 100 nM, 20 hours)?
Its value is “about 4 fold”.

What about the “changes in the shape of the cell” value ([3]; CV-1 cell, 4 hours) of the same compound?
Its value is “shrinkage of cell body relative to FIG. 19D”.

What about the “changes in the shape of live cells” value ([3]; CV-1 cells, 4 hours) of the same compound?
The value was “shrinkage of cell bodies”.

And the “beginning of cell shrinkage after treatment” value ([3]; non-transfected CV-1 cells)?
The value was 1.5 h.

And the “effect on the kinetics of tubulin polymerization” value ([4]; 0.5 μM)?
Its value is “no effect on the kinetics of tubulin polymerization”.

And the “influence on the effect of Taxol on tubulin polymerization” value ([4]; 0.5 μM Compound 1 with 3 μM or 30 nM Taxol)?
The value was “did not influence the effect of either high dose (3 μM) or low dose (30 nM) of Taxol on tubulin polymerization”.

And the “effect on the accumulation of Taxol (Oregon Green 488-Taxol) at centrosomes” value [5]?
The value was “no effect on the accumulation of Taxol at centrosomes”.
